Source: PMC5971061, “Differential Effects of Linkers on the Activity of Amphiphilic Tobramycin Antifungals” (Molecules : A Journal of Synthetic Chemistry and Natural …, 2018)
In brackets after ≈: the same amount, converted by molar mass. Like-named read-outs stand apart in the source and are kept apart here.

Experiments:
[1] = system: C. albicans ATCC 90819(R) (strain D); assay: MIC, broth microdilution (CLSI M27-A3), yeast strain D; assay type: cell-based; conditions: Candida albicans, ATCC90819; MIC-0, strain D, 35 °C 48 h
Procedure: (§1) The final concentrations of compounds 3, 4, 7a, 7b, 9, and 16, as well as that of TOB tested in this study ranged from 0.24–62.5 μg/mL. CAS was used as a positive control and the final concentrations tested for CAS ranged from 0.03–31.3 μg/mL. Briefly, overnight yeast cultures were grown in yeast peptone dextrose (YPD) broth and the cell density was adjusted to an OD600 of 0.12 (~1 × 10^6 CFU/mL) by using a spectrophotometer. Yeast cell suspensions were further diluted to achieve 1–5 × 10^3 CFU/mL in RPMI 1640 medium, and 100 μL of these yeast cells was added to 96-well microtiter plates containing RPMI 1640 medium and titrated compounds. Each test was performed in triplicate. The plates were incubated at 35 °C for 48 h.

[2] = system: Aspergillus flavus ATCC MYA-3631 (strain K); assay: MIC, filamentous fungi (CLSI M38-A2), strain K; assay type: cell-based; conditions: MIC-0, strain K, 35 °C 72 h
Procedure: The spores were harvested from sporulating cultures growing on potato dextrose agar (PDA) by filtration through sterile glass wool and enumerated by using a hemocytometer (Hausser Scientific, Horsham, PA, USA) to obtain the desired inoculum size. Two-fold serial dilutions of compounds 3, 4, 7a, 7b, 9, and 16, as well as CAS and TOB were made in sterile 96-well microtiter plates to obtain the final concentration range of 0.24–62.5 μg/mL for TOB and TOB derivatives as well as 0.03–31.3 μg/mL for CAS in the RPMI 1640 medium. The spore suspensions were added to the wells to afford a final concentration of 5 × 10^5 spores/mL. The plates were incubated at 35 °C for 72 h. […] Each test was performed in triplicate.

Hemolytic activity assay = assay type: cell-based, murine; conditions: mouse, murine red blood cells (mRBCs); for hemolysis at 1 h, 0.48 μg/mL / hemolysis at 1 h, 0.975 μg/mL / hemolysis at 1 h, 1.95 μg/mL / hemolysis at 1 h, 3.9 μg/mL / hemolysis at 1 h, 7.8 μg/mL / hemolysis at 1 h, 15.6 μg/mL / hemolysis at 1 h, 31.3 μg/mL / hemolysis at 1 h, 62.5 μg/mL: mRBCs, 37 °C 1 h, ± SDEV; for hemolysis at 1 h: at their MIC values against the Aspergillus strains
Procedure: (§2) The hemolytic activity of compounds 3, 4, 7a, 7b, and 9 as well as the parent compound TOB was determined by using previously described methods with minor modifications. Murine whole blood (1 mL) was suspended in 4 mL of PBS and centrifuged at 1000 rpm for 10 min at room temperature to obtain murine red blood cells (mRBCs). The mRBCs were washed four times in PBS and resuspended in the same buffer to a final concentration of 10^7 erythrocytes/mL. Two-fold serial dilutions of compounds 3, 4, 7a, 7b, and 9 were prepared using 100 μL of PBS buffer in Eppendorf tubes followed by the addition of 100 μL of mRBC suspension that made the final concentration of compounds and mRBCs to be 0.48–62.5 μg/mL and 5 × 10^6 erythrocytes/mL, respectively. The tubes were incubated at 37 °C for 1 h. The tubes with PBS buffer (200 μL) and Triton X-100® (1% v/v, 2 μL) served as the negative (blank) and positive controls, respectively. The percentage of hemolysis was calculated using the following equation: % hemolysis = [(absorbance of sample) − (absorbance of blank)] × 100/(absorbance of positive control).

[3] = system: murine red blood cells (mRBCs); assay: Hemolytic activity assay; assay type: cell-based; conditions: at 3.9 μg/mL, 2- to 8-fold their MIC values against the three C. neoformans clinical isolates
Procedure: as §2

[4] = system: Candida parapsilosis clinical isolate CP1; assay: MIC, broth microdilution (CLSI M27-A3), CP1; assay type: cell-based; conditions: Lodderomyces parapsilosis; MIC-0, CP1, 35 °C 48 h
Procedure: as §1

[5] = system: Candida parapsilosis clinical isolate CP3; assay: MIC, broth microdilution (CLSI M27-A3), CP3; assay type: cell-based; conditions: MIC-0, CP3, 35 °C 48 h
Procedure: as §1

[6] = system: Candida krusei ATCC 6258 (strain I); assay: MIC, broth microdilution (CLSI M27-A3), yeast strain I; assay type: cell-based; conditions: Pichia kudriavzevii, ATCC6258; MIC-0, strain I, 35 °C 48 h
Procedure: as §1

[7] = system: C. albicans ATCC MYA-2876(S) (strain C); assay: MIC, broth microdilution (CLSI M27-A3), yeast strain C; assay type: cell-based; conditions: Candida albicans; MIC-0, strain C, 35 °C 48 h
Procedure: as §1

[8] = system: Candida glabrata clinical isolate CG2; assay: MIC, broth microdilution (CLSI M27-A3), CG2; assay type: cell-based; conditions: Nakaseomyces glabratus; MIC-0, CG2, 35 °C 48 h
Procedure: as §1

[9] = system: C. albicans ATCC 64124 (strain B); assay: MIC, broth microdilution (CLSI M27-A3), yeast strain B; assay type: cell-based; conditions: Candida albicans, ATCC64124; MIC-0, strain B, 35 °C 48 h
Procedure: as §1

[10] = system: Cryptococcus neoformans clinical isolate CN2; assay: MIC, broth microdilution (CLSI M27-A3), CN2; assay type: cell-based; conditions: MIC-0, CN2, 35 °C 48 h
Procedure: as §1

[11] = system: Cryptococcus neoformans clinical isolate CN3; assay: MIC, broth microdilution (CLSI M27-A3), CN3; assay type: cell-based; conditions: MIC-0, CN3, 35 °C 48 h
Procedure: as §1

A549 cell line = assay: In vitro cytotoxicity assay (resazurin), A549; assay type: cell-based, human; conditions: for IC50: Homo sapiens, A549, 24 h, resazurin
Procedure: Mammalian cytotoxicity assays were performed as previously described with minor modifications. The normal human bronchial epithelial cells BEAS-2B and the human lung carcinoma epithelial cells A549 were grown in DMEM containing 10% fetal bovine serum (FBS) and 1% antibiotics. The confluent cells were then trypsinized with 0.05% trypsin and 0.53 mM EDTA, and resuspended in fresh DMEM medium. The cells were transferred into 96-well microtiter plates at a density of 3000 cells/well and were grown for 24 h. The following day, the medium was replaced by a fresh culture medium containing serially diluted compounds 3, 4, 7a, 7b, and 9, as well as the parent drug TOB at final concentrations of 0.48–62.5 μg/mL or sterile ddH2O (negative control). The cells were incubated for an additional 24 h at 37 °C with 5% CO2 in a humidified incubator. To evaluate cell survival, each well was treated with 10 μL (25 μg/mL) of resazurin sodium salt (Sigma-Aldrich) for 4–6 h. Metabolically active cells can convert resazurin (blue) to the highly fluorescent dye resorufin (pink), which was detected at λ560 excitation and λ590 emission wavelengths by using a SpectraMax M5 plate reader. Triton X-100® (1% v/v) gave the complete loss of cell viability and was used as the positive control. The percentage survival rates were calculated by using the following formula: % cell survival = [(fluorescence of sample) − (fluorescence of blank)] × 100/[(fluorescence of negative control) − (fluorescence of blank)].

[12] = Aspergillus flavus, 72 h, read-out: MIC

Structure (SMILES) | MIC [1] [µg/mL] | MIC [4] [µg/mL] | MIC [5] [µg/mL] | MIC [6] [µg/mL] | MIC [7] [µg/mL] | MIC [8] [µg/mL] | MIC [9] [µg/mL] | MIC [10] [µg/mL] | MIC [11] [µg/mL] | hemolysis at 1 h, 0.48 μg/mL (Hemolytic activity assay) [%] | hemolysis at 1 h, 0.975 μg/mL (Hemolytic activity assay) [%] | hemolysis at 1 h, 1.95 μg/mL (Hemolytic activity assay) [%] | hemolysis at 1 h, 3.9 μg/mL (Hemolytic activity assay) [%] | hemolysis at 1 h, 7.8 μg/mL (Hemolytic activity assay) [%] | hemolysis at 1 h, 15.6 μg/mL (Hemolytic activity assay) [%] | hemolysis at 1 h, 31.3 μg/mL (Hemolytic activity assay) [%] | hemolysis at 1 h, 62.5 μg/mL (Hemolytic activity assay) [%] | hemolysis at 1 h (Hemolytic activity assay) [%] | mRBCs lysed [3] | IC50 (A549 cell line) [µg/mL] | further results
CCCCCCCCCCCCSC[C@H]1O[C@H](O[C@@H]2[C@@H](O)[C@H](O[C@H]3O[C@H](CN)[C@@H](O)C[C@H]3N)[C@@H](N)C[C@H]2N)[C@H](O)[C@@H](N)[C@@H]1O [Compound 3, O-3-Amino-3-deoxy-6-S-dodecyl-6-thio-α-D-glucopyranosyl-(1→6)-O-[2,6-diamino-2,3,6-trideoxy-α-D-ribo-hexopyranosyl-(1→4)]-2-deoxy-D-streptamine] | 15.6 (≈ 23.9 µM) | 15.6 (≈ 23.9 µM) | 15.6 (≈ 23.9 µM) | 3.9 (≈ 5.98 µM) | 15.6 (≈ 23.9 µM) | 7.8 (≈ 12 µM) | 15.6 (≈ 23.9 µM) | 0.48 (≈ 0.736 µM) | 0.48 (≈ 0.736 µM) | 0 | 2.5 ± 2.3 | 6 ± 3.5 | 12 ± 1.9 | 18.6 ± 6.6 | 46.2 ± 2.3 | 55.5 ± 3.9 | 67 ± 4.6 | 12 to 74 | up to 13% |  | MIC [2, 12]: 7.8 to 31.3 µg/mL (≈ 12 to 48 µM); MIC [2]: 15.6 µg/mL (≈ 23.9 µM)
CCCCCCCCCCCCS(=O)(=O)C[C@H]1O[C@H](O[C@@H]2[C@@H](O)[C@H](O[C@H]3O[C@H](CN)[C@@H](O)C[C@H]3N)[C@@H](N)C[C@H]2N)[C@H](O)[C@@H](N)[C@@H]1O [Compound 4, O-3-Amino-3,6-dideoxy-6-(dodecylsulfonyl)-α-D-glucopyranosyl-(1→6)-O-[2,6-diamino-2,3,6-trideoxy-α-D-ribo-hexopyranosyl-(1→4)]-2-deoxy-D-streptamine] | 15.6 (≈ 22.8 µM) | 3.9 (≈ 5.7 µM) | 7.8 (≈ 11.4 µM) | 7.8 (≈ 11.4 µM) | 15.6 (≈ 22.8 µM) | 3.9 (≈ 5.7 µM) | 31.3 (≈ 45.8 µM) | 0.48 (≈ 0.702 µM) | 0.975 (≈ 1.43 µM) | 0 | 0 | 6.6 ± 3.5 | 6 ± 1.9 | 10.7 ± 3.1 | 15.3 ± 5 | 24.9 ± 2.3 | 31.2 ± 6.6 | 4 to 32 | up to 13% | > 62.5 | 

Second part, led by results:

MIC [1] [µg/mL] | MIC [4] [µg/mL] | MIC [5] [µg/mL] | MIC [6] [µg/mL] | MIC [7] [µg/mL] | MIC [8] [µg/mL] | MIC [9] [µg/mL] | MIC [10] [µg/mL] | MIC [11] [µg/mL] | Structure (SMILES) | hemolysis at 1 h, 0.48 μg/mL (Hemolytic activity assay) [%] | hemolysis at 1 h, 0.975 μg/mL (Hemolytic activity assay) [%] | hemolysis at 1 h, 1.95 μg/mL (Hemolytic activity assay) [%] | hemolysis at 1 h, 3.9 μg/mL (Hemolytic activity assay) [%] | hemolysis at 1 h, 7.8 μg/mL (Hemolytic activity assay) [%] | hemolysis at 1 h, 15.6 μg/mL (Hemolytic activity assay) [%] | hemolysis at 1 h, 31.3 μg/mL (Hemolytic activity assay) [%] | hemolysis at 1 h, 62.5 μg/mL (Hemolytic activity assay) [%] | hemolysis at 1 h (Hemolytic activity assay) [%] | mRBCs lysed [3] | IC50 (A549 cell line) [µg/mL] | further results
62.6 (≈ 95 µM) | 15.6 (≈ 23.7 µM) | 31.3 (≈ 47.5 µM) | 15.6 (≈ 23.7 µM) | 62.5 (≈ 94.9 µM) | 15.6 (≈ 23.7 µM) | 31.3 (≈ 47.5 µM) | 0.975 (≈ 1.48 µM) | 0.48 (≈ 0.729 µM) | CCCCCCCCCCc1cn(C[C@H]2O[C@H](O[C@@H]3[C@@H](O)[C@H](O[C@H]4O[C@H](CN)[C@@H](O)C[C@H]4N)[C@@H](N)C[C@H]3N)[C@H](O)[C@@H](N)[C@@H]2O)nn1 [Compound 7a, O-3-Amino-3,6-dideoxy-6-(4-decyl-1H-1,2,3-triazol-1-yl)-α-D-glucopyranosyl-(1→6)-O-[2,6-diamino-2,3,6-trideoxy-α-D-ribo-hexopyranosyl-(1→4)]-2-deoxy-D-streptamine] | 0 | 0 | 15.6 ± 9.3 | 0 | 7.4 ± 3.1 | 14 ± 5.4 | 14.8 ± 1.9 | 14.8 ± 0.4 |  | up to 13% | > 62.5 | 
62.5 (≈ 96.3 µM) | 31.3 (≈ 48.2 µM) | 31.3 (≈ 48.2 µM) | 15.6 (≈ 24 µM) | 31.3 (≈ 48.2 µM) | 15.6 (≈ 24 µM) | 15.6 (≈ 24 µM) | 0.975 (≈ 1.5 µM) | 0.975 (≈ 1.5 µM) | CCCCCCCCCCCC(=O)NC[C@H]1O[C@H](O[C@@H]2[C@@H](O)[C@H](O[C@H]3O[C@H](CN)[C@@H](O)C[C@H]3N)[C@@H](N)C[C@H]2N)[C@H](O)[C@@H](N)[C@@H]1O [Compound 9, O-3-Amino-3,6-dideoxy-6-[(1-oxododecyl)amino]-α-D-glucopyranosyl-(1→6)-O-[2,6-diamino-2,3,6-trideoxy-α-D-ribo-hexopyranosyl-(1→4)]-2-deoxy-D-streptamine] | 0 | 0 | 2.5 ± 1.5 | 4.1 ± 1.5 | 10.1 ± 4.6 | 18.3 ± 5.4 | 26 ± 11.6 | 31.5 ± 1.5 | 4 to 32 | up to 13% | > 62.5 | 
> 62.5 | > 62.5 | > 62.5 | > 62.5 | > 62.5 | > 62.5 | > 62.5 | > 62.5 | > 62.5 | NC[C@H]1O[C@H](O[C@H]2[C@H](O)[C@@H](O[C@H]3O[C@H](CO)[C@@H](O)[C@H](N)[C@H]3O)[C@H](N)C[C@@H]2N)[C@H](N)C[C@@H]1O [TOB, tobramycin] | 4.7 ± 3.9 | 9.3 ± 3.5 | 15.9 ± 1.9 | 15.9 ± 8.1 | 11.2 ± 4.6 | 15.3 ± 5 | 15.3 ± 2.7 | 21.1 ± 9.3 |  |  |  | MIC [2, 12]: > 62.5 µg/mL; toxicity (in words) (A549 cell line; A549, 0.48-62.5 μg/mL, 24 h): little to no toxicity
